From ChEMBL document CHEMBL1133291, “The discovery of non-basic atrial natriuretic peptide clearance receptor antagonists. Part 1” (Bioorg Med Chem Lett, 2000)
Numbered stars: 1 amine (or outer) side, 2 acyl side, 3 side chain; on linkers, the order of the positions; unused ones are H or OH. Square brackets hold non-standard residues; d marks the D form. Peptide text beside a SMILES is read from it. * marks the point of attachment. NH(2S-methylbutyl) = CC[C@H](C)CN*; 2Naphthoyl = O=C(c1ccc2ccccc2c1)*; X1 = O=C(Cc1ccc(N[*:1])cc1)[*:2]; PhAc = O=C(Cc1ccccc1)*; X2 = CCC[C@H](C)CN*

Legend:
[1] = target: T1, Atrial natriuretic peptide receptor 1 (Homo sapiens, UniProt P16066); test: Displacement of [125I]- ANP from the Atrial natriuretic peptide receptor A.; assay type: tissue-based, Cardiac atrium
T1 sequence (P16066 whole entry): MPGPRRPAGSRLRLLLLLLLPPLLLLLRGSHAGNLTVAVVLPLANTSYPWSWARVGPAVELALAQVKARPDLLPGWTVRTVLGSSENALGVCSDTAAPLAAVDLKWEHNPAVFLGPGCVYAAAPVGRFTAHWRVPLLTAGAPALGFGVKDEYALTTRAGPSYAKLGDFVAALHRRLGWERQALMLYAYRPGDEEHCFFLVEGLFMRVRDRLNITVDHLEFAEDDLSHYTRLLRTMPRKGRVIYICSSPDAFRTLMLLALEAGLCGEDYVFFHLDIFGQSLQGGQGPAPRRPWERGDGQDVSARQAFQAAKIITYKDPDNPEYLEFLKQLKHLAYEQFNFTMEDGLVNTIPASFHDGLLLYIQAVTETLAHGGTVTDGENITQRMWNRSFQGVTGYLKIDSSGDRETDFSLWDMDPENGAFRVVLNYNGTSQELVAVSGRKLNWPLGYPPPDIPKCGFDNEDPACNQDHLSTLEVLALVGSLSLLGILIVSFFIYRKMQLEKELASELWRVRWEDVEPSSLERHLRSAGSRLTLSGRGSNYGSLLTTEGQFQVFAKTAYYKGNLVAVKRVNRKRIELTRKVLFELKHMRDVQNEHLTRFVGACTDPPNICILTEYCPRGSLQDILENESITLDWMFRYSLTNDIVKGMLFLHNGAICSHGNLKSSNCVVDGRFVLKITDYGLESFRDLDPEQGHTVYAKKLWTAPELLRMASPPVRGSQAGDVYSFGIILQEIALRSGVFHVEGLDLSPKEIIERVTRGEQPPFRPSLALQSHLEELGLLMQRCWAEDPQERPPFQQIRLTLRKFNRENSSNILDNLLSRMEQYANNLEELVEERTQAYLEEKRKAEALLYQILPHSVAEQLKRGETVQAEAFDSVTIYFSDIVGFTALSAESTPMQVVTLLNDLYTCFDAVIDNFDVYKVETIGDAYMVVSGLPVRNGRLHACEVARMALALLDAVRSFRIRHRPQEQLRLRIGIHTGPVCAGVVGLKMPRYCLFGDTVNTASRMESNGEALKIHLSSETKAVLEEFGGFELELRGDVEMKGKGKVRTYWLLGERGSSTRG

[2] = target: T2, Atrial natriuretic peptide receptor 3 (Homo sapiens, UniProt P17342); test: Displacement of [125I]- ANP from the Atrial Natriuretic Peptide Clearance Receptor.; assay type: tissue-based, Cardiac atrium
T2 sequence (P17342 whole entry): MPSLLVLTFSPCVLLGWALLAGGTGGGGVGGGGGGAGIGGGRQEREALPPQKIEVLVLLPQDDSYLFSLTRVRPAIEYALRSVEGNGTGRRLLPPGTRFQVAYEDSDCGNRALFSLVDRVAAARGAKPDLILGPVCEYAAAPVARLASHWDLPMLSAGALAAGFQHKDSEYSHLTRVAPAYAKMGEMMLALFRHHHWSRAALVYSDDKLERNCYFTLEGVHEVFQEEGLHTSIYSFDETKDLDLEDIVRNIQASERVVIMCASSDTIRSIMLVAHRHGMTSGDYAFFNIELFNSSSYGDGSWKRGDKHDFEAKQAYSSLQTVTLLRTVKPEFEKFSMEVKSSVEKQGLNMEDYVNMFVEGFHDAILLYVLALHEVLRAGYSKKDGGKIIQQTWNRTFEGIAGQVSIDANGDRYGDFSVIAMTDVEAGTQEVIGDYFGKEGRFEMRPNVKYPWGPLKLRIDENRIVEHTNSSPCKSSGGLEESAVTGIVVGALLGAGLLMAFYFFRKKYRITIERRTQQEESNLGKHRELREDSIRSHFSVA

[3] = Ratio of binding affinity for ANP-CR receptor and ANP-A receptor

Row | SMILES | Ki [1] | Ki [2] | Selectivity [3]
1 | CC[C@H](C)[C@@H]1NC(=O)[C@H](C)NC(=O)CNC(=O)CNC(=O)[C@H](Cc2ccccc2)NC(=O)[C@H](N)CSSC[C@H](C(=O)O)NC(=O)CNC(=O)[C@H](CC(C)C)NC(=O)CNC(=O)[C@H](CO)NC(=O)[C@H](CCC(N)=O)NC(=O)[C@H](C)NC(=O)CNC(=O)[C@H]([C@@H](C)CC)NC(=O)[C@H](CCCN=C(N)N)NC(=O)[C@H](CC(=O)O)NC1=O | 0.49 nM | 0.49 nM | 
2 | CC[C@H](C)[C@@H]1NC(=O)[C@H](CCCNC(=N)N)NC(=O)[C@H](CC(=O)O)NC(=O)[C@H]([C@@H](C)CC)NC(=O)[C@H](CCCNC(=N)N)NC(=O)CNC(=O)CNC(=O)[C@H](Cc2ccccc2)NC(=O)[C@@H](NC(=O)[C@H](CO)NC(=O)[C@H](CO)NC(=O)[C@@H](N)CCCNC(=N)N)CSSC[C@@H](C(=O)O)NC(=O)[C@H](C)NC(=O)CNC1=O |  | 1.64 nM | 
3 | CC[C@H](C)[C@@H]1NC(=O)[C@H](CCCN=C(N)N)NC(=O)[C@H](CC(=O)O)NC(=O)[C@H]([C@@H](C)CC)NC(=O)[C@H](CCCN=C(N)N)NC(=O)CNC(=O)CNC(=O)[C@H](Cc2ccccc2)NC(=O)[C@H](NC(=O)[C@H](CO)NC(=O)[C@H](CO)NC(=O)[C@@H](N)CCCN=C(N)N)CSSC[C@H](C(=O)O)NC(=O)[C@H](C)NC(=O)CNC1=O | > 10 nM |  | 6100
4 | CC[C@H](C)[C@@H]1NC(=O)[C@H](CCCN=C(N)N)NC(=O)[C@H](C)NC(=O)[C@H]([C@@H](C)CC)NC(=O)[C@H](CCCN=C(N)N)NC(=O)CNC(=O)CNC(=O)[C@H](Cc2ccccc2)NC(=O)[C@H](N)CSSC[C@H](C(=O)O)NC(=O)CNC(=O)[C@H](CC(C)C)NC(=O)CNC(=O)[C@H](CO)NC(=O)[C@H](CCC(N)=O)NC(=O)[C@H](C)NC(=O)CNC1=O | 87 nM | 87 nM | 
5 | CC[C@H](C)CNC(=O)[C@H](C)NC(=O)[C@H](CC(=O)O)NC(=O)[C@@H](NC(=O)[C@H](C)NC(=O)Cc1ccc(NC(=O)c2ccc3ccccc3c2)cc1)[C@@H](C)CC (2Naphthoyl-[X1]AIDA-{NH(2S-methylbutyl)}) | 65 nM | 65 nM | 
6 | CC[C@H](C)CNC(=O)[C@H](CCCN=C(N)N)NC(=O)[C@H](CC(=O)O)NC(=O)[C@@H](NC(=O)[C@H](C)NC(=O)Cc1ccc(NC(=O)c2ccc3ccccc3c2)cc1)[C@@H](C)CC (2Naphthoyl-[X1]AIDR-{NH(2S-methylbutyl)}) | 0.3 nM | 0.3 nM | 
7 | CC[C@H](C)CNC(=O)[C@H](CCCN=C(N)N)NC(=O)[C@H](CC(=O)O)NC(=O)[C@H](C)NC(=O)[C@H](CCCN=C(N)N)NC(=O)Cc1ccc(NC(=O)c2ccc3ccccc3c2)cc1 (2Naphthoyl-[X1]RADR-{NH(2S-methylbutyl)}) | 680 nM | 680 nM | 
8 | CC[C@H](C)CNC(=O)[C@H](CCCNC(=N)N)NC(=O)[C@H](C)NC(=O)[C@@H](NC(=O)[C@H](CCCNC(=N)N)NC(=O)Cc1ccc(NC(=O)c2ccc3ccccc3c2)cc1)[C@@H](C)CC (2Naphthoyl-[X1]RIAR-{NH(2S-methylbutyl)}) | 62 nM | 62 nM | 
9 | CC[C@H](C)CNC(=O)[C@H](C)NC(=O)[C@H](CC(=O)O)NC(=O)[C@@H](NC(=O)[C@H](CCCN=C(N)N)NC(=O)Cc1ccc(NC(=O)c2ccc3ccccc3c2)cc1)[C@@H](C)CC (2Naphthoyl-[X1]RIDA-{NH(2S-methylbutyl)}) | 0.4 nM | 0.4 nM | 
10 | CC[C@H](C)[C@H](NC(=O)[C@H](CCCNC(=N)N)NC(=O)Cc1ccc(NC(=O)c2ccc3ccccc3c2)cc1)C(=O)N[C@@H](CC(=O)O)C(=O)N[C@@H](CCCNC(=N)N)C(N)=O (2Naphthoyl-[X1]RIDR-NH2) | 2600 nM | 2600 nM | 
11 | CC[C@H](C)CNC(=O)[C@H](CCCN=C(N)N)NC(=O)[C@H](CC(=O)O)NC(=O)[C@@H](NC(=O)[C@H](CCCN=C(N)N)NC(=O)Cc1ccc(NC(=O)c2ccc3ccccc3c2)cc1)[C@@H](C)CC (2Naphthoyl-[X1]RIDR-{NH(2S-methylbutyl)}) | > 10 nM | 0.48 nM | > 20000
12 | CCC[C@H](C)CNC(=O)[C@H](CCCNC(=N)N)NC(=O)[C@H](CC(=O)O)NC(=O)[C@@H](NC(=O)[C@H](CCCNC(=N)N)NC(C)=O)[C@@H](C)CC (Ac-RIDR-X2) | 2900 nM | 2900 nM | 
13 | CCC[C@H](C)CNC(=O)[C@H](CCCN=C(N)N)NC(=O)[C@H](CC(=O)O)NC(=O)[C@@H](NC(=O)[C@H](CCCN=C(N)N)NC(=O)Cc1ccccc1)[C@@H](C)CC (PhAc-RIDR-X2) | 539 nM | 539 nM | 
